Measurements from patent US6841661B2, “Glycopeptide antibacterial compounds, compositions containing same and methods of using same” (Princeton Univerisity, priority 1999, dated 2005).

Assays:
[1] = tested on: E. faecalis CL 4877 (VanB); test: microbe, parasite or virus in culture; assay type: cell-based; parameters: CL4877 (in vitro testing): unit not given here; settings: Tables 7 and 8; unit not given
Text: (§1) National Committee for Clinical Laboratory Standards (NCCLS) guidelines [Methods for Dilution Antimicrobial Susceptibility Tests for Bacteria that Grow Aerobically-Fourth Edition; Approved Standard (NCCLS Document M7-A4, January 1997)] are used to establish the assay, although variations are made to optimize the published method according to the specific needs of the present investigation.
(§2) The test panel currently includes eight enterococci and 13 staphylococci, which are selected based upon their antibiotic susceptibility profiles. The methicillin-sensitive Staphylococcus aureus (MSSA) strain MB2985 (Smith isolate) is used to assesses the potential for serum protein binding of the compounds. The paired Gram-negative strains ASP #49 (envA-) and ASP #50 (envA+) (M. Salvatore/N. Lee) are included to judge membrane effects. Table 3 presents a detailed description of the strains included in the panel, including some of the sources of the strains of bacteria.
(§3) The glycopeptide antibiotic teicoplanin is included whenever possible.
(§4) TSB, containing 10% HS* for vancomycin intermediate S. aurcus/methicillin-resistant S. aureus (VISA/MRSA) strains, is inoculated from an appropriate source (frozen broth or agar slant) and grown approximately 17 hr at 35° C. with shaking at 220 rpm. Cultures are grown in tubes with a volume of 5 ml for enterococci and 2 ml for all other strains.
(§5) Four milliliter (4 ml) overnight culture is added to 36 ml physiological saline to obtain tenfold dilutions (enterococci). Overnight culture (0.4 ml) is added to 39.6 ml saline to obtain 100-fold dilutions (all strains except enterococci). Diluted cultures are maintained on ice until time of inoculation of test plates.
(§6) The number of CFU/mL is determined on BHI agar plates, although this is not done routinely because titers of overnight cultures are relatively constant. The test media include: • BHI for enterococci and VISA/MRSA; • MH II (i.e., cation-adjusted Mueller-Hinton broth) for MRS, MSS and E. coli.; • MH II+HSA for MSSA is prepared as follows: • a. 2×MHII+86mg/ml HSA • b. Dissolve 4.3 g HSA in 50 ml autoclaved 2x MH II. • c. pH to 7.0 by adding 2M MOPS, sodium. • d. Filter sterilize using 0.22 μm Coming cellulose acetate filter, used because of reported low protein binding. • e. 1×MH II+43 mg/ml HSA • f. Dilute the 2×medium twofold and filter as above. 5.8.6. Preparation of Test Plates
(§7) Using a Denley liquid handling system (or similar automatic device), 100 μ1×medium is added to each well in columns 2-12 of a 96-well microtiter dish. Using a multichannel pipettor, 100 μl 2×medium is added to each well in column 1. Plates may be filled on the day prior to assay, wrapped in plastic bags and refrigerated.
(§8) Vancomycin, Schering 29482, and teicoplanin are prepared on a weight per volume basis using 10 mM 3-(N-morpholino)propane-sulfonic acid (MOPS) buffer pH 7. Test compounds are received in solution in appropriate solvent (typically as 1 mg/ml in DMSO) or are dissolved in appropriate solvent prior to further dilution in 10 mM MOPS buffer, ph7. Consistent with NCCLS guidelines, antibiotics are handled aseptically but are not otherwise sterilized.
(§9) 100 μl appropriately diluted antibiotic solution is added to the first well of the designated row of the 96-well microtiter dish and serially diluted by twofold across the row using the Denley liquid handling system. With the aid of a Dynatech NEC 2000 inoculator, each well of the microtiter dish is inoculated with 1.5 μl diluted overnight culture, yielding approximately 1-5×10^6 CFU/ml for enterococci and approximately 3-7×10^5 CFU/ml for all other strains. Dishes are placed in stacks of no more than five, wrapped in plastic bags and incubated at 35° C. • Indication of result(s) type (% INH, IC50, Zone size, etc.) • MIC=minimum inhibitory concentration ps 5.8.9. Interpretation of the Results on the Basis of Activity […]

[2] = tested on: CL 4931, CL 5053, CL 5242 and CL 4877; assay type: cell-based, E. faecium, E. faecalis; parameters: unit not given here; settings: mean of CL4931, CL5053, CL5242, CL4877; unit not given
Text: as §1, §2, §3, §4, §5, §6, §7, §8, §9

[3] = tested on: E. faecium CL 5053 (VanA); test: microbe, parasite or virus in culture; assay type: cell-based; parameters: CL5053 (in vitro testing): unit not given here; settings: Tables 7 and 8; unit not given
Text: as §1, §2, §3, §4, §5, §6, §7, §8, §9

[4] = tested on: E. faecium CL 5242 (VanA); test: microbe, parasite or virus in culture; assay type: cell-based; parameters: CL5242 (in vitro testing): unit not given here; settings: Tables 7 and 8; unit not given
Text: as §1, §2, §3, §4, §5, §6, §7, §8, §9

[5] = tested on: E. faecium CL 4931 (VanA); test: microbe, parasite or virus in culture; assay type: cell-based; parameters: CL4931 (in vitro testing): unit not given here; settings: Tables 7 and 8; unit not given
Text: as §1, §2, §3, §4, §5, §6, §7, §8, §9

| Structure (SMILES) | CL4877 (in vitro testing) [1] | Mean [2] | CL5053 (in vitro testing) [3] | CL5242 (in vitro testing) [4] | CL4931 (in vitro testing) [5] |
| --- | --- | --- | --- | --- | --- |
| CNC(CC(C)C)C(=O)NC1C(=O)NC(CC(N)=O)C(=O)NC2C(=O)NC3C(=O)NC(C(=O)NC(C(=O)O)c4cc(O)cc(O)c4-c4cc3ccc4O)C(O)c3ccc(c(Cl)c3)Oc3cc2cc(c3OC2OC(CNCc3ccc(N)cc3)C(O)C(O)C2OC2CC(C)(NCc3ccc(OCc4ccc(Cl)c(Cl)c4)cc3)C(O)C(C)O2)Oc2ccc(cc2Cl)C1O (centres unmarked) [Compound 133] | 0.03 | 1.1 | 2 | 0.5 | 2 |
| CNC(CC(C)C)C(=O)NC1C(=O)NC(CC(N)=O)C(=O)NC2C(=O)NC3C(=O)NC(C(=O)NC(C(=O)O)c4cc(O)cc(O)c4-c4cc3ccc4O)C(O)c3ccc(c(Cl)c3)Oc3cc2cc(c3OC2OC(CNCc3ccccc3)C(O)C(O)C2OC2CC(C)(NCc3ccc(OCc4ccc(Cl)c(Cl)c4)cc3)C(O)C(C)O2)Oc2ccc(cc2Cl)C1O (centres unmarked) [Compound 134] | 0.25 | 1.8 | 4 | 1 | 2 |
| CNC(CC(C)C)C(=O)NC1C(=O)NC(CC(N)=O)C(=O)NC2C(=O)NC3C(=O)NC(C(=O)NC(C(=O)O)c4cc(O)cc(O)c4-c4cc3ccc4O)C(O)c3ccc(c(Cl)c3)Oc3cc2cc(c3OC2OC(CNCCc3ccc(N)cc3)C(O)C(O)C2OC2CC(C)(NCc3ccc(OCc4ccc(Cl)c(Cl)c4)cc3)C(O)C(C)O2)Oc2ccc(cc2Cl)C1O (centres unmarked) [Compound 135] | 0.06 | 2.3 | 4 | 1 | 4 |
| CNC(CC(C)C)C(=O)NC1C(=O)NC(CC(N)=O)C(=O)NC2C(=O)NC3C(=O)NC(C(=O)NC(C(=O)O)c4cc(O)cc(O)c4-c4cc3ccc4O)C(O)c3ccc(c(Cl)c3)Oc3cc2cc(c3OC2OC(CNCc3ccc(F)cc3)C(O)C(O)C2OC2CC(C)(NCc3ccc(OCc4ccc(Cl)c(Cl)c4)cc3)C(O)C(C)O2)Oc2ccc(cc2Cl)C1O (centres unmarked) [Compound 136] | 0.12 | 2.3 | 4 | 1 | 4 |
| CNC(CC(C)C)C(=O)NC1C(=O)NC(CC(N)=O)C(=O)NC2C(=O)NC3C(=O)NC(C(=O)NC(C(=O)O)c4cc(O)cc(O)c4-c4cc3ccc4O)C(O)c3ccc(c(Cl)c3)Oc3cc2cc(c3OC2OC(CNCc3cccc(Cl)c3)C(O)C(O)C2OC2CC(C)(NCc3ccc(OCc4ccc(Cl)c(Cl)c4)cc3)C(O)C(C)O2)Oc2ccc(cc2Cl)C1O (centres unmarked) [Compound 137] | 0.12 | 2.3 | 4 | 1 | 4 |
| CNC(CC(C)C)C(=O)NC1C(=O)NC(CC(N)=O)C(=O)NC2C(=O)NC3C(=O)NC(C(=O)NC(C(=O)O)c4cc(O)cc(O)c4-c4cc3ccc4O)C(O)c3ccc(c(Cl)c3)Oc3cc2cc(c3OC2OC(CNCc3ccc(OC)cc3)C(O)C(O)C2OC2CC(C)(NCc3ccc(OCc4ccc(Cl)c(Cl)c4)cc3)C(O)C(C)O2)Oc2ccc(cc2Cl)C1O (centres unmarked) [Compound 138] | 0.5 | 3.4 | 4 | 1 | 8 |
| CNC(CC(C)C)C(=O)NC1C(=O)NC(CC(N)=O)C(=O)NC2C(=O)NC3C(=O)NC(C(=O)NC(C(=O)O)c4cc(O)cc(O)c4-c4cc3ccc4O)C(O)c3ccc(c(Cl)c3)Oc3cc2cc(c3OC2OC(CNCc3ccccc3N)C(O)C(O)C2OC2CC(C)(NCc3ccc(OCc4ccc(Cl)c(Cl)c4)cc3)C(O)C(C)O2)Oc2ccc(cc2Cl)C1O (centres unmarked) [Compound 139] | 0.25 | 3.6 | 4 | 2 | 8 |
| CNC(CC(C)C)C(=O)NC1C(=O)NC(CC(N)=O)C(=O)NC2C(=O)NC3C(=O)NC(C(=O)NC(C(=O)O)c4cc(O)cc(O)c4-c4cc3ccc4O)C(O)c3ccc(c(Cl)c3)Oc3cc2cc(c3OC2OC(CNCC3CCCCN3)C(O)C(O)C2OC2CC(C)(NCc3ccc(OCc4ccc(Cl)c(Cl)c4)cc3)C(O)C(C)O2)Oc2ccc(cc2Cl)C1O (centres unmarked) [Compound 140] | 0.5 | 3.6 | 8 | 2 | 4 |
| CNC(CC(C)C)C(=O)NC1C(=O)NC(CC(N)=O)C(=O)NC2C(=O)NC3C(=O)NC(C(=O)NC(C(=O)O)c4cc(O)cc(O)c4-c4cc3ccc4O)C(O)c3ccc(c(Cl)c3)Oc3cc2cc(c3OC2OC(CNCc3ccc(C)cc3)C(O)C(O)C2OC2CC(C)(NCc3ccc(OCc4ccc(Cl)c(Cl)c4)cc3)C(O)C(C)O2)Oc2ccc(cc2Cl)C1O (centres unmarked) [Compound 141] | 1 | 3.8 | 8 | 2 | 4 |
| CNC(CC(C)C)C(=O)NC1C(=O)NC(CC(N)=O)C(=O)NC2C(=O)NC3C(=O)NC(C(=O)NC(C(=O)O)c4cc(O)cc(O)c4-c4cc3ccc4O)C(O)c3ccc(c(Cl)c3)Oc3cc2cc(c3OC2OC(CNCC3CCCO3)C(O)C(O)C2OC2CC(C)(NCc3ccc(OCc4ccc(Cl)c(Cl)c4)cc3)C(O)C(C)O2)Oc2ccc(cc2Cl)C1O (centres unmarked) [Compound 142] | 2 | 4.0 | 8 | 2 | 4 |
| CNC(CC(C)C)C(=O)NC1C(=O)NC(CC(N)=O)C(=O)NC2C(=O)NC3C(=O)NC(C(=O)NC(C(=O)O)c4cc(O)cc(O)c4-c4cc3ccc4O)C(O)c3ccc(c(Cl)c3)Oc3cc2cc(c3OC2OC(CNCCc3ccccc3)C(O)C(O)C2OC2CC(C)(NCc3ccc(OCc4ccc(Cl)c(Cl)c4)cc3)C(O)C(C)O2)Oc2ccc(cc2Cl)C1O (centres unmarked) [Compound 143] | 2 | 4.0 | 4 | 2 | 8 |
| CNC(CC(C)C)C(=O)NC1C(=O)NC(CC(N)=O)C(=O)NC2C(=O)NC3C(=O)NC(C(=O)NC(C(=O)O)c4cc(O)cc(O)c4-c4cc3ccc4O)C(O)c3ccc(c(Cl)c3)Oc3cc2cc(c3OC2OC(CNC3CCCC3)C(O)C(O)C2OC2CC(C)(NCc3ccc(OCc4ccc(Cl)c(Cl)c4)cc3)C(O)C(C)O2)Oc2ccc(cc2Cl)C1O (centres unmarked) [Compound 144] | 2 | 4.0 | 8 | 2 | 4 |
| CNC(CC(C)C)C(=O)NC1C(=O)NC(CC(N)=O)C(=O)NC2C(=O)NC3C(=O)NC(C(=O)NC(C(=O)O)c4cc(O)cc(O)c4-c4cc3ccc4O)C(O)c3ccc(c(Cl)c3)Oc3cc2cc(c3OC2OC(CNCc3ccco3)C(O)C(O)C2OC2CC(C)(NCc3ccc(OCc4ccc(Cl)c(Cl)c4)cc3)C(O)C(C)O2)Oc2ccc(cc2Cl)C1O (centres unmarked) [Compound 145] | 0.5 | 4.4 | 8 | 1 | 8 |
